Biological target: Sphingosine 1-phosphate receptor 4 (Homo sapiens) (UniProt O95977)
Experiment: potency of S1P4 activators – cell-based, fluorescence, synthesized compounds, late-stage follow-up (AID 463107)
Details: S1P4 cell-based agonist assay

Sequence of Sphingosine 1-phosphate receptor 4 (Homo sapiens) (O95977 whole entry, looked up): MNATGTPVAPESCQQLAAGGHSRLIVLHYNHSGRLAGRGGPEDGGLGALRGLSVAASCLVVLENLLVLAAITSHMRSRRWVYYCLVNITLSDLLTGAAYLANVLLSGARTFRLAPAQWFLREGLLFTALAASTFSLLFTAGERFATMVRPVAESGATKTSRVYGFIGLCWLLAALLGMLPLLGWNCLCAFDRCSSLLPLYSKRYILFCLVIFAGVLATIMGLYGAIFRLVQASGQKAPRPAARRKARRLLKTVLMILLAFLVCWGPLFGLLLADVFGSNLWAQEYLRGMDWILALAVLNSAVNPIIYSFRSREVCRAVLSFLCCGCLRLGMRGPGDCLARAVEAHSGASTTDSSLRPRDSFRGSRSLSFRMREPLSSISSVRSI

EC50	Structure (SMILES)
52 nM	Cc1ccc(OCCOc2ccc(Cl)cc2Cl)c(Br)n1
162 nM	Cc1ccc(OCCOc2ccc(Cl)cc2Cl)c([N+](=O)[O-])n1
3900 nM	COc1ccc(OCCOc2ccc(C)nc2[N+](=O)[O-])c(Cl)c1

Further lines, the compound ahead of its results:

Structure (SMILES)	EC50
Cc1ccc(OCCOc2c(Cl)cc(Cl)cc2Cl)c([N+](=O)[O-])n1	570 nM
Clc1ccc(OCCOc2ccc(Br)nc2Br)c(Cl)c1	46.3 nM
FCc1ccc(OCCOc2ccc(Cl)cc2Cl)c(Cl)n1	45.5 nM
Cc1ccc(OCCOc2ccc(C)nc2[N+](=O)[O-])c(C)c1	7200 nM

From PubChem BioAssay AID463107 (The Scripps Research Institute Molecular Screening Center, 2010)
